Source: PubChem BioAssay AID248 (DTP/NCI, 2004)
Where “and” joins values, the source holds several entries; their conditions need not be identical. Equal entries are not always repeated. Inconclusive results and toxic doses are left out. Cut-off read from the data, not from the text of the source: active = T/C of 150% or more; inactive = T/C below 125%.

Tested on: L1210 leukemia ip in BDF1 mice, survival T/C
Test: NCI In Vivo Anticancer Drug Screen. Data for tumor model L1210 Leukemia (intraperitoneal) in B6D2F1 (BDF1) mice
Details: endpoint: mean survival time, higher = longer survival
Summary of the method: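 Each compound was tested against a transplantable tumor grown in mice. The endpoint was survival, with treated animals benchmarked against vehicle controls as a simple ratio.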

[1] = dose: 100.0 mg/kg/injection, schedule: Q01DX001 (ip), vehicle: Klucel (hydroxypropylcellulose) (HPC)
[2] = dose: 200.0 mg/kg/injection, schedule: Q01DX001 (ip), vehicle: Klucel (hydroxypropylcellulose) (HPC)
[3] = dose: 400.0 mg/kg/injection, schedule: Q01DX001 (ip), vehicle: Klucel (hydroxypropylcellulose) (HPC)
[4] = dose: 50.0 mg/kg/injection, schedule: Q01DX001 (ip), vehicle: saline
[5] = dose: 100.0 mg/kg/injection, schedule: Q01DX001 (ip), vehicle: saline
[6] = dose: 100.0 mg/kg/injection, schedule: Q04DX002 (ip), vehicle: saline
[7] = dose: 200.0 mg/kg/injection, schedule: Q04DX002 (ip), vehicle: saline
[8] = dose: 400.0 mg/kg/injection, schedule: Q04DX002 (ip), vehicle: saline
[9] = dose: 50.0 mg/kg/injection, schedule: Q01DX009 (ip), vehicle: saline with Tween-80
[10] = dose: 100.0 mg/kg/injection, schedule: Q01DX009 (ip), vehicle: saline with Tween-80
[11] = dose: 200.0 mg/kg/injection, schedule: Q01DX009 (ip), vehicle: saline with Tween-80
[12] = dose: 100.0 mg/kg/injection, schedule: Q01DX001 (ip), vehicle: carboxymethylcellulose (CMC)
[13] = dose: 200.0 mg/kg/injection, schedule: Q01DX001 (ip), vehicle: carboxymethylcellulose (CMC)
[14] = dose: 400.0 mg/kg/injection, schedule: Q01DX001 (ip), vehicle: carboxymethylcellulose (CMC)
[15] = dose: 100.0 mg/kg/injection, schedule: Q01DX009 (ip), vehicle: saline
[16] = dose: 200.0 mg/kg/injection, schedule: Q01DX009 (ip), vehicle: saline
[17] = dose: 400.0 mg/kg/injection, schedule: Q01DX009 (ip), vehicle: saline
[18] = dose: 400.0 mg/kg/injection, schedule: Q01DX009 (ip), vehicle: saline with Tween-80
[19] = dose: 25.0 mg/kg/injection, schedule: Q01DX009 (ip), vehicle: saline with Tween-80
[20] = dose: 100.0 mg/kg/injection, schedule: Q01DX009 (ip), vehicle: Klucel (hydroxypropylcellulose) (HPC)
[21] = dose: 200.0 mg/kg/injection, schedule: Q01DX009 (ip), vehicle: Klucel (hydroxypropylcellulose) (HPC)
[22] = dose: 400.0 mg/kg/injection, schedule: Q01DX009 (ip), vehicle: Klucel (hydroxypropylcellulose) (HPC)
[23] = dose: 100.0 mg/kg/injection, schedule: Q04DX003 (ip), vehicle: Klucel (hydroxypropylcellulose) (HPC)
[24] = dose: 200.0 mg/kg/injection, schedule: Q04DX003 (ip), vehicle: Klucel (hydroxypropylcellulose) (HPC)
[25] = dose: 400.0 mg/kg/injection, schedule: Q04DX003 (ip), vehicle: Klucel (hydroxypropylcellulose) (HPC)
[26] = dose: 100.0 mg/kg/injection, schedule: Q04DX003 (ip), vehicle: saline with Tween-80
[27] = dose: 200.0 mg/kg/injection, schedule: Q04DX003 (ip), vehicle: saline with Tween-80
[28] = dose: 400.0 mg/kg/injection, schedule: Q04DX003 (ip), vehicle: saline with Tween-80

Measured: T/C

Cc1cn(CCCCOC(=O)c2ccc([N+](=O)[O-])cc2)c(=O)[nH]c1=O
inactive: [1] 95 % of control | [2] 100 % of control | [3] 87 % of control

Cc1cc(C)c(C[N+](C)(C)C)c(C)c1
inactive: [4] 108 % of control | [5] 104 % of control

CC(=O)CP(=O)(O)O
inactive: [6] 97 % of control | [7] 94 % of control | [8] 94 % of control

CCOC(=O)C(C#N)=P(c1ccccc1)(c1ccccc1)c1ccccc1
inactive: [9] 96 % of control | [10] 88 % of control | [11] 96 % of control

C(=N/N=C/c1ccccn1)/c1cccnc1
inactive: [12] 94 % of control | [13] 96 % of control | [14] 96 % of control

C=C(Cl)CN1CCCC(=O)c2ccccc21
inactive: [15] 100 % of control | [16] 94 % of control | [17] 96 % of control

SC1CC[N-]CC1.SC1CC[N-]CC1.[Cl][Pt+2][Cl]
inactive: dose: 25.0 mg/kg/injection, schedule: Q01DX009 (ip), vehicle: water 96 % of control | dose: 50.0 mg/kg/injection, schedule: Q01DX009 (ip), vehicle: water 101 % of control | dose: 100.0 mg/kg/injection, schedule: Q01DX009 (ip), vehicle: water 96 % of control | dose: 100.0 mg/kg/injection, schedule: Q04DX003 (ip), vehicle: water 101 % of control | dose: 200.0 mg/kg/injection, schedule: Q01DX009 (ip), vehicle: water 98 % of control | dose: 200.0 mg/kg/injection, schedule: Q04DX003 (ip), vehicle: water 97 % of control

NC(=S)N/N=C/c1cc2c(cc1[N+](=O)[O-])OCO2
inactive: dose: 50.0 mg/kg/injection, schedule: Q01DX001 (ip), vehicle: carboxymethylcellulose (CMC) 98 % of control | [12] 101 % of control | [13] 93 % of control

COC(=O)c1ccc(-c2cc(Cl)c3cc(S(=O)(=O)F)ccc3n2)cc1
inactive: [10] 94 % of control | [11] 100 % of control | [18] 95 % of control

CCOC(=O)CNC(=O)Nc1ccc(C(=O)OCC)cc1
inactive: [10] 98 % of control | [11] 92 % of control

COc1cccc(C2NC(=O)N3C(c4cccc(OC)c4)NC(=O)N23)c1 (stereo unspecified)
inactive: dose: 100.0 mg/kg/injection, schedule: Q01DX009 (ip), vehicle: gum acacia 98 % of control | dose: 100.0 mg/kg/injection, schedule: Q04DX003 (ip), vehicle: gum acacia 97 % of control | dose: 200.0 mg/kg/injection, schedule: Q01DX009 (ip), vehicle: gum acacia 91 % of control | dose: 200.0 mg/kg/injection, schedule: Q04DX003 (ip), vehicle: gum acacia 95 % of control | dose: 400.0 mg/kg/injection, schedule: Q01DX009 (ip), vehicle: gum acacia 91 % of control

O=NN(CCCCl)C(=O)NC1CCCCC1
inactive: dose: 12.5 mg/kg/injection, schedule: Q01DX001 (ip), vehicle: saline 103 % of control | dose: 25.0 mg/kg/injection, schedule: Q01DX001 (ip), vehicle: saline 108 % of control | [4] 103 % of control | [5] 103 % of control | dose: 200.0 mg/kg/injection, schedule: Q01DX001 (ip), vehicle: saline 102 % of control | dose: 300.0 mg/kg/injection, schedule: Q01DX001 (ip), vehicle: saline 106 % of control | dose: 400.0 mg/kg/injection, schedule: Q01DX001 (ip), vehicle: saline 110 % of control | dose: 500.0 mg/kg/injection, schedule: Q01DX001 (ip), vehicle: saline 100 % of control | dose: 600.0 mg/kg/injection, schedule: Q01DX001 (ip), vehicle: saline 106 % of control | dose: 800.0 mg/kg/injection, schedule: Q01DX001 (ip), vehicle: saline 112 % of control | dose: 1000.0 mg/kg/injection, schedule: Q01DX001 (ip), vehicle: saline 103 % of control

N#CCC(=O)NCc1cnccn1
inactive: dose: 50.0 mg/kg/injection, schedule: Q01DX005 (ip), vehicle: saline 110 % of control | dose: 100.0 mg/kg/injection, schedule: Q01DX005 (ip), vehicle: saline 104 % of control | dose: 100.0 mg/kg/injection, schedule: Q04DX003 (ip), vehicle: saline 103 % of control | dose: 200.0 mg/kg/injection, schedule: Q01DX005 (ip), vehicle: saline 105 % of control | dose: 200.0 mg/kg/injection, schedule: Q04DX003 (ip), vehicle: saline 103 % of control | dose: 400.0 mg/kg/injection, schedule: Q01DX005 (ip), vehicle: saline 105 % of control | dose: 400.0 mg/kg/injection, schedule: Q04DX003 (ip), vehicle: saline 101 % of control

O=C(CCCCC(=O)N/N=C/c1ccncc1)N/N=C/c1ccncc1
inactive: [19] 94 % of control | [9] 91 % of control | [10] 96 % of control and 89 % of control | [18] 91 % of control

COC(=O)c1ccc(OC(=O)Nc2ccc(Br)cc2)cc1
inactive: [20] 102 % of control | [21] 92 % of control | [22] 92 % of control

CCN(CC)c1ccc(/C=C2/C=Cc3ccccc32)cc1
inactive: [12] 92 % of control | [13] 90 % of control | [14] 95 % of control

O=C(Nc1ccccc1C(F)(F)F)OCCOc1ccc(-c2ccccc2)cc1
inactive: [20] 93 % of control | [21] 91 % of control | [22] 91 % of control

CCOC(=O)c1cnc(SC)nc1Nc1cccc(OC)c1
inactive: [23] 108 % of control | [24] 110 % of control | [25] 101 % of control

COC(=O)C(CCC#N)(CCC#N)C(C)=O
inactive: [1] 96 % of control | [2] 91 % of control | [3] 89 % of control

CC(=O)Nc1ccc2c(c1)C(=O)c1cc(F)ccc1-2
inactive: [26] 100 % of control | [27] 96 % of control | [28] 110 % of control

COc1ccc(CSC(=S)NNc2ccccc2)cc1
inactive: [20] 96 % of control | [23] 98 % of control | [21] 86 % of control | [24] 93 % of control | [22] 87 % of control | [25] 90 % of control

CC(=O)OC1OC(CF)C(OC(C)=O)C1OC(C)=O (stereo unspecified)
inactive: [10] 92 % of control

Nc1nc(N)c2nc3c(nc2n1)C(=O)N(c1ccc(C(=O)NC(CCC(=O)O)C(=O)O)cc1)C3 (stereo unspecified)
inactive: [15] 94 % of control | [16] 98 % of control | [17] 86 % of control

N#C/C(=C/c1ccc(Cl)cc1)C(=O)O
inactive: dose: 62.5 mg/kg/injection, schedule: Q01DX009 (ip), vehicle: Klucel (hydroxypropylcellulose) (HPC) 115 % of control | dose: 100.0 mg/kg/injection, schedule: Q04DX002 (ip), vehicle: Klucel (hydroxypropylcellulose) (HPC) 109 % of control | dose: 125.0 mg/kg/injection, schedule: Q01DX009 (ip), vehicle: Klucel (hydroxypropylcellulose) (HPC) 86 % of control | dose: 200.0 mg/kg/injection, schedule: Q04DX002 (ip), vehicle: Klucel (hydroxypropylcellulose) (HPC) 98 % of control | dose: 250.0 mg/kg/injection, schedule: Q01DX009 (ip), vehicle: Klucel (hydroxypropylcellulose) (HPC) 86 % of control

Cc1ccccc1-c1nc2cc(Cl)ccc2c(=O)o1
inactive: [19] 98 % of control | [9] 88 % of control | [10] 96 % of control | [26] 100 % of control | [27] 102 % of control | [28] 108 % of control

O=C(O)CCCN1CCCCC1
inactive: [6] 103 % of control | [7] 100 % of control | [8] 100 % of control

CCCNC(=O)Nc1ccc(C)c(Cl)c1
inactive: [10] 100 % of control | [26] 108 % of control | [11] 96 % of control | [27] 101 % of control | [18] 100 % of control | [28] 95 % of control
